Experimental data taken from PMC11965169, “Flavin-containing siderophore-interacting protein of Shewanella putrefaciens DSM 9451 reveals common structural and functional aspects of ferric–siderophore reduction” (Journal of Biological Inorganic Chemistry, 2025).

Tests used:
[1] = biological target: T1, SbSIP (siderophore-interacting protein, flavin-containing siderophore reductase) (Shewanella bicestrii, UniProt A0A220UGT4); test: X-ray crystal structure, […] Å; type: binding
T1 construct: gene CF168_00510; Trx-His10 tag-free SbSIP; chains A and B, residues 1-3/247-251 and 1-5/249-251 not modelled
T1 sequence (A0A220UGT4 1-250): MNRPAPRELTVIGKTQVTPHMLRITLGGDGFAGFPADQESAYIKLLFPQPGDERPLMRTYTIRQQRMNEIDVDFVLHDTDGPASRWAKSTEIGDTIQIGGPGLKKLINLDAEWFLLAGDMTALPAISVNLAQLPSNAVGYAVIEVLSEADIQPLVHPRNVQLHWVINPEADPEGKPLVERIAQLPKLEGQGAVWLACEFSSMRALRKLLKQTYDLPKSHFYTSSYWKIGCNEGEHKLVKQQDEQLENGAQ

[2] = biological target: T2, SbSIP (siderophore-interacting protein, flavin-containing siderophore reductase) (Shewanella bicestrii, UniProt A0A220UGT4); test: […] NMR titration (slow exchange); type: binding
T2 construct: gene CF168_00510

[3] = biological target: T2, SbSIP (siderophore-interacting protein, flavin-containing siderophore reductase); test: […] NMR titration (fast exchange, chemical shift perturbation); type: binding
[4] = biological target: T2, SbSIP (siderophore-interacting protein, flavin-containing siderophore reductase); test: stopped-flow reduction of ferric siderophore by purified SbSIPsemi, […] nm; type: biochemical

Q: For `Cc1cc2nc3c(=O)[nH]c(=O)nc-3n(C[C@H](O)[C@H](O)[C@H](O)COP(=O)(O)OP(=O)(O)OC[C@H]3O[C@@H](n4cnc5c(N)ncnc54)[C@H](O)[C@@H]3O)c2cc1C` [FAD], which “X-ray crystal structure, 1.86 Å” value [1] is on record?
A: The value was “contained two SbSIP protein chains (A and B), each one bound to an FAD moiety”.

Q: Which Kd [2] does the source give for `NC(=O)C1=CN([C@@H]2O[C@H](COP(=O)(O)OP(=O)(O)OC[C@H]3O[C@@H](n4cnc5c(N)ncnc54)[C@H](O)[C@@H]3O)[C@@H](O)[C@H]2O)C=CC1` [NADH] here?
A: Its Kd is 17 ± 5 µM.

Q: How did the Kd [3] turn out when `NC(=O)C1=CN([C@@H]2O[C@H](COP(=O)(O)OP(=O)(O)OC[C@H]3O[C@@H](n4cnc5c(N)ncnc54)[C@H](OP(=O)(O)O)[C@@H]3O)[C@@H](O)[C@H]2O)C=CC1` [NADPH] was run?
A: The Kd was 107 ± 2 µM.

Q: For Fe(III)–bisucaberin, which “stopped-flow reduction of ferric siderophore by purified SbSIPsemi, 600 nm” value [4] is on record?
A: The value was 0.0014 ± 2 × 10^–4.

Q: With Fe(III)–putrebactin as the compound, how does the “stopped-flow reduction of ferric siderophore by purified SbSIPsemi, 600 nm” value [4] read?
A: Its value is 0.0031 ± 5 × 10^–5.
